Assay [1] deals with T1, Tyrosyl-DNA phosphodiesterase 1 (Homo sapiens, UniProt Q9NUW8). Put plainly: Inhibition of Tdp1 (unknown origin) up to 40 uM incubated for 30 mins using 5'-/6-TAMN/AGGATCTAAAAGACTT/3BHQ_2/-3' substrate by microplate reader based assay.
Assay [2] concerns the target T1, Tyrosyl-DNA phosphodiesterase 1. In words: Inhibition of Tdp1 (unknown origin) incubated for 30 mins using 5'-/6-TAMN/AGGATCTAAAAGACTT/3BHQ_2/-3' substrate by microplate reader based assay.

Inhibition and IC50 data for five molecules are collected here from ChEMBL document CHEMBL3588774, “Tyrosyl-DNA Phosphodiesterase I Inhibitors from the Australian Plant Macropteranthes leichhardtii” (J Nat Prod, 2015).

Molecules are shown by their SMILES. Calls of active or inactive are those of the source. No cut-off for these calls is given here.

T1 sequence (Q9NUW8 whole entry): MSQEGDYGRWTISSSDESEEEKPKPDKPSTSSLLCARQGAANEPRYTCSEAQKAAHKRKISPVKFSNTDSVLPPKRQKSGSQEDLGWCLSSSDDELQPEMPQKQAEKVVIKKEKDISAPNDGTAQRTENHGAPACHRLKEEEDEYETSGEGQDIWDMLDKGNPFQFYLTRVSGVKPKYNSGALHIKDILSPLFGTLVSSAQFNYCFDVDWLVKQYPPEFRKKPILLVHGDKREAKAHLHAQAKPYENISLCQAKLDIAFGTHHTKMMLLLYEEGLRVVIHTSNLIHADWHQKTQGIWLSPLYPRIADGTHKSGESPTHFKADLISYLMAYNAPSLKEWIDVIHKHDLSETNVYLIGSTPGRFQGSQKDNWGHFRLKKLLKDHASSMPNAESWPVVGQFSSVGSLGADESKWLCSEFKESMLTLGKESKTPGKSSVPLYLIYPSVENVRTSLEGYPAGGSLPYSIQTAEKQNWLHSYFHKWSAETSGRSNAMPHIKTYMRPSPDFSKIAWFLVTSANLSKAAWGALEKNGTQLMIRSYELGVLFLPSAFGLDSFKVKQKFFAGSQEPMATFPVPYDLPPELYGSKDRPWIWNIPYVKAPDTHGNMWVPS

Turning to `COc1cc([C@@H]2O[C@H]3[C@H](O[C@H]2CO)O[C@H](COC(=O)c2cc(O)c(O)c(O)c2)[C@@H](O)[C@@H]3O)ccc1O`, in assay [1], the inhibition result is “inactive”.
Still for that read-out and setting: as for `COc1cc(O[C@@H]2O[C@H](COC(=O)c3cc(O)c(O)c(O)c3)[C@@H](O)[C@H](O)[C@H]2O)cc(OC)c1OC`, the entry is “inactive”.
As for `COc1cc(C[C@@H](CO)O[C@@H]2O[C@H](COC(=O)c3cc(O)c(O)c(O)c3)[C@@H](O)[C@H](O)[C@H]2O)ccc1O`, the IC50 (as a rule, the midpoint of a concentration-inhibition curve) in assay [2] amounted to 1000 nM.
Take `COc1ccc(O[C@@H]2O[C@H](COC(=O)c3cc(O)c(O)c(O)c3)[C@@H](O)[C@H](O)[C@H]2O)cc1OC`: the IC50 in assay [2] amounted to 1000 nM.
On to `COc1cc([C@@H]2O[C@H]3[C@H](O[C@H]2COC(=O)c2cc(O)c(O)c(O)c2)O[C@H](CO)[C@@H](O)[C@@H]3O)ccc1O`, for which the inhibition entry in assay [1] was “inactive”.
